Measurements from ChEMBL document CHEMBL4196037, “Precise structures of fucosylated glycosaminoglycan and its oligosaccharides as novel intrinsic factor Xase inhibitors” (Eur J Med Chem, 2018).

Columns and labels:
[1] = molecular target: Coagulation factor IX/VIII (Homo sapiens, UniProt P00451+P00740); assay: Inhibition of human intrinsic factor tenase using factor-10 as substrate preincubated for 2 mins followed by substrate addition for 1 min measured every 30 secs for 5 mins by chromogenic substrate S10a-11 based assay; type: protein-complex assay
[2] = system: Plasma; assay: Anticoagulant activity in human plasma assessed as concentration required for increase in clotting time after 2 mins by aPTT assay; type: functional
[3] = system: Plasma; assay: Anticoagulant activity in human plasma assessed as concentration required for increase in clotting time after 2 mins by TT assay; type: functional
[4] = molecular target: Coagulation factor X (Bos taurus) (UniProt P00743); assay: Inhibition of antithrombin-dependant bovine factor 10a activity at 2000 ng/ml preincubated for 1 mins followed by chromogenic substrate S10a-11 addition measured every 30 secs for 5 mins relative to control
[5] = system: Plasma; assay: Anticoagulant activity in human plasma assessed as concentration required for increase in clotting time after 2 mins by PT assay; type: functional
[6] = molecular target: Prothrombin (Homo sapiens) (UniProt P00734); assay: Inhibition of antithrombin-dependant factor 2a (unknown origin) activity at 2000 ng/ml preincubated for 2 mins followed by chromogenic substrate CS-01 addition measured every 30 secs for 5 mins relative to control

Chain of Coagulation factor IX/VIII (P00451 20-759 limits assumed): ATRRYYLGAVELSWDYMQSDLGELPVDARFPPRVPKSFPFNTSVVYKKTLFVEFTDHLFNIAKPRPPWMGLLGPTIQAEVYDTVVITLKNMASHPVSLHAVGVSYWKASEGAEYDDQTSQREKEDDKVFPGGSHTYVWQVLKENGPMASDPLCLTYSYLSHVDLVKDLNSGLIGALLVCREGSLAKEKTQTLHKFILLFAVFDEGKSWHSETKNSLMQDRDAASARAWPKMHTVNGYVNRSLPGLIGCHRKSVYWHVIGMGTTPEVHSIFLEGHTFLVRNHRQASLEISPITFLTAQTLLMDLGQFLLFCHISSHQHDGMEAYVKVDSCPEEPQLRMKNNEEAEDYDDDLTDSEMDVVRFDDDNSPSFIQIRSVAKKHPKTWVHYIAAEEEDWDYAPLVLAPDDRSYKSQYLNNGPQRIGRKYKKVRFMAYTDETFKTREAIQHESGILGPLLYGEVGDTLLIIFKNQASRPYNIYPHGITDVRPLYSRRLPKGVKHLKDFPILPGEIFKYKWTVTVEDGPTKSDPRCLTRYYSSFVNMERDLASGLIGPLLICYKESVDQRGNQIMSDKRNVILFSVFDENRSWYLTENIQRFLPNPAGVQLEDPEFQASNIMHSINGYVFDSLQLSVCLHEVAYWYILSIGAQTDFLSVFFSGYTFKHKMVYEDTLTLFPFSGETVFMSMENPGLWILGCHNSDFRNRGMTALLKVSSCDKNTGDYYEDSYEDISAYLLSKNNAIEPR
Chain of Coagulation factor IX/VIII (P00451 1668-2351 limits assumed): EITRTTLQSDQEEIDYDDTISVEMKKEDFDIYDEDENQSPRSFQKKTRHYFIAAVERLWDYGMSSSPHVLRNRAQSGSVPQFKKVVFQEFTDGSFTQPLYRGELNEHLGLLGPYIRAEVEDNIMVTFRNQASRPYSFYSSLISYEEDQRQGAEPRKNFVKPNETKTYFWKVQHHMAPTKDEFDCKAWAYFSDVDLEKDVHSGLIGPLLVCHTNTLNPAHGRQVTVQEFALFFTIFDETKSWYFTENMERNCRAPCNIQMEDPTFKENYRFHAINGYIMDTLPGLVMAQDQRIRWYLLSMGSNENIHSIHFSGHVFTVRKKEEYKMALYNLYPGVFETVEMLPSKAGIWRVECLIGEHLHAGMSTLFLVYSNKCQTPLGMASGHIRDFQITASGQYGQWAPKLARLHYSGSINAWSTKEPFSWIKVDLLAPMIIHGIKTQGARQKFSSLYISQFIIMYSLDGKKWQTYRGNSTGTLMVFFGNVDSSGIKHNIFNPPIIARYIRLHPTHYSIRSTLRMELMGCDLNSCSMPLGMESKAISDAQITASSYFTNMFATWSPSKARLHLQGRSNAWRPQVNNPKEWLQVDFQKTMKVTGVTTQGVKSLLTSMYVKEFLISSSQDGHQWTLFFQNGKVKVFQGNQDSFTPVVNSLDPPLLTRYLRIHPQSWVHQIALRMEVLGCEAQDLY
Chain of Coagulation factor IX/VIII (P00740 47-191 limits assumed): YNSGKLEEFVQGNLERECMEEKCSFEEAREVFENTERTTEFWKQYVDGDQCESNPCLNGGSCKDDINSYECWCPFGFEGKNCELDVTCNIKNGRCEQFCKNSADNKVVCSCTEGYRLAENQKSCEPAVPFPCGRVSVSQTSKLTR
Chain of Coagulation factor IX/VIII (P00740 227-461 limits assumed): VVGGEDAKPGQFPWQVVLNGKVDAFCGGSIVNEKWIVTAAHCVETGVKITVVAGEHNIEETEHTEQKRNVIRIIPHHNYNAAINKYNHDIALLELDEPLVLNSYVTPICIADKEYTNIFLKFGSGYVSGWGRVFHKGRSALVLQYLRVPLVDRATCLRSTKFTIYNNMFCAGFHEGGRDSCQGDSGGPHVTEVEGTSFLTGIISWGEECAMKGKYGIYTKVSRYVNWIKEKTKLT
Chain of Coagulation factor X (Bos taurus) (P00743 41-180 limits assumed): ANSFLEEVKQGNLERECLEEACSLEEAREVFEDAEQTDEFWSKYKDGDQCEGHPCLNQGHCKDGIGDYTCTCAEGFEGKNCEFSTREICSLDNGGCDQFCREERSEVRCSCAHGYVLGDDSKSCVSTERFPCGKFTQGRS
Chain of Coagulation factor X (Bos taurus) (P00743 234-492 limits assumed): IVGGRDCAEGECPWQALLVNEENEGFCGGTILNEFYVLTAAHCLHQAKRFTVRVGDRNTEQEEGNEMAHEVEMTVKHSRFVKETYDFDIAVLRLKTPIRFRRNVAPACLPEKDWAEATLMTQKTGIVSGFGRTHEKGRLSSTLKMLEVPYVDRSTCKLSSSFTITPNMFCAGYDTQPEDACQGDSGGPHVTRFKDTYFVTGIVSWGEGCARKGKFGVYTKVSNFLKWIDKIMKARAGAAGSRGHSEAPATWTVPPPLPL

Row | IC50 [1] [µM] | inhibition [4] [%] | inhibition [6] [%] | Compound | 2aPTT [2] [µg/mL] | 2TT [3] [µg/mL] | 2PT [5] [µg/mL]
1 | 0.0987 | < 10 | < 10 | CC(=O)N[C@H]1[C@H](O[C@@H]([C@H](O[C@@H]2O[C@@H](C)[C@@H](OS(=O)(=O)[O-])[C@@H](O)[C@@H]2OS(=O)(=O)[O-])[C@@H](O)CO)[C@H](O)C(=O)[O-])O[C@H](COS(=O)(=O)[O-])[C@H](OS(=O)(=O)[O-])[C@@H]1O[C@@H]1O[C@H](C(=O)[O-])[C@@H](O[C@@H]2O[C@H](COS(=O)(=O)[O-])[C@H](OS(=O)(=O)[O-])[C@H](O[C@@H]3OC(C(=O)[O-])=C[C@H](O[C@@H]4O[C@@H](C)[C@@H](OS(=O)(=O)[O-])[C@@H](O)[C@@H]4OS(=O)(=O)[O-])[C@H]3O)[C@H]2NC(C)=O)[C@H](O[C@@H]2O[C@@H](C)[C@@H](OS(=O)(=O)[O-])[C@@H](O)[C@@H]2OS(=O)(=O)[O-])[C@H]1O.[Na+].[Na+].[Na+].[Na+].[Na+].[Na+].[Na+].[Na+].[Na+].[Na+].[Na+].[Na+].[Na+] | 14.43 | >128 | >128
2 | 2.42 | < 10 | < 10 | CC(=O)N[C@@H](CO)[C@@H](O[C@@H]1OC(C(=O)[O-])=C[C@H](O[C@@H]2O[C@@H](C)[C@@H](OS(=O)(=O)[O-])[C@@H](O)[C@@H]2OS(=O)(=O)[O-])[C@H]1O)[C@@H](OS(=O)(=O)[O-])[C@H](O)COS(=O)(=O)[O-].[Na+].[Na+].[Na+].[Na+].[Na+] | >128 | >128 | >128
3 | 1.15 | < 10 | < 10 | CC(=O)N[C@H]1[C@H](O[C@@H]([C@H](O[C@@H]2O[C@@H](C)[C@@H](OS(=O)(=O)[O-])[C@@H](O)[C@@H]2OS(=O)(=O)[O-])[C@@H](O)CO)[C@H](O)C(=O)[O-])O[C@H](COS(=O)(=O)[O-])[C@H](OS(=O)(=O)[O-])[C@@H]1O[C@@H]1OC(C(=O)[O-])=C[C@H](O[C@@H]2O[C@@H](C)[C@@H](OS(=O)(=O)[O-])[C@@H](O)[C@@H]2OS(=O)(=O)[O-])[C@H]1O.[Na+].[Na+].[Na+].[Na+].[Na+].[Na+].[Na+].[Na+] | 106.9 | >128 | >128
